In publication PMC10647553, “Evaluating the Anti-Melanoma Effects and Toxicity of Cinnamaldehyde Analogues” (Molecules, 2023):
Where two headings read alike, the source gives them in different places.

What was measured:
[1] = tested on: melanoma cell lines (A375, A875, SK-MEL-1); assay: Initial screening of analogues against melanoma cell lines; assay type: cell-based; settings: for activity in initial screening: A375, A875, SK-MEL-1, 0–50 µM, 72 h, Figure 2A–C
Method: (§1) The HepG-2, HUVEC, L-02, HK-2, A375, A549, H8, U251, HeLa, Cal-27, and PANC-1 cells were maintained in a DMEM medium. The TSSCA, SK-MEL-1, and […] cells were cultured in an RPMI-1640 medium, and the A875 cells were cultured in a MEM medium. All cells were supplemented with 10% fetal bovine serum, 100 units/mL penicillin, and streptomycin at 37 °C in 5% CO2. The Cell Counting Kit-8 (CCK-8, bs-0764P, Bioss, Beijing, China) method was used to assay the cytotoxicity.
(§2) Figure 2 Effect of CA analogues in melanoma cells. (A–D) The different melanoma cell lines were treated with 0–50 µM analogues for 72 h, and then IC50 value was assayed (A dashed blue line: 50% inhibition rate; red box: analogues with high activity).

A375 cells [2] = assay: CCK-8 cell viability, A375 melanoma cells; assay type: cell-based; settings: Homo sapiens, A-375, 0–50 µM, 72 h
Method: as §1, §2

A875 cells = assay: CCK-8 cell viability, A875 melanoma cells; assay type: cell-based; settings: 0–50 µM, 72 h
Method: as §1, §2

SK-MEL-1 cells = assay: CCK-8 cell viability, SK-MEL-1 melanoma cells; assay type: cell-based; settings: Homo sapiens, 0–50 µM, 72 h
Method: as §1, §2

[3] = tested on: multiple types of cancer cells and normal cells; assay: Specificity towards different tumor and normal cell lines; assay type: cell-based; settings: 0–200 µM, 72 h; Figure 3A
Method: as §1
(§3) Figure 3 CAD-14 inhibited the proliferation of A375 cells. (A) The different tumor and normal cell lines were treated with 0–200 µM CAD-14 for 72 h, and then IC50 value was assayed. (B) Cells were treated with 0–0.02 µM CAD-14 for 14 days, and Giemsa staining was used to conduct colony formation assays; the histogram depicts the number of colonies. (C,D) Cells were treated with 0–0.8 µM CAD-14 for 24 h; then, the related proteins were tested via Western blotting. Histograms depict the intensity ratio. (E,F) Cells were treated with 0–0.4 µM CAD-14 for 24 h, then the DNA content of the cells was determined with a flow cytometry system. Histograms show the percentage of cells in G0/G1, G2/M, and S phase. Values represent the means ± SD. * p < 0.05, ** p < 0.01 versus “Ctrl” group.

A375 cells [4] = assay: Colony formation assay; assay type: cell-based; settings: A375, 0–0.02 µM, 14 days, versus Ctrl
Method: The A375 cells were plated onto six-well plates (500 cells/well), and after 24 h, CAD-14 (0–0.02 µM) was added to the medium and incubated for an additional 14 days. Cells were fixed in methanol and stained with Giemsa. The colonies were then scored and photographed.
as §3

[5] = tested on: Bak, Bcl-2 and survivin in A375 cells; assay: Western blotting of apoptosis-related proteins; assay type: cell-based; settings: A375, 0–0.8 µM, 24 h, dose-dependent
Method: (§4) The A375 cells were treated with CAD-14 (0–0.8 µM), alone or with indicated agents, for 24 h. Whole-cell extracts were loaded for SDS-PAGE gels depending on the target protein sizes, and were explored with protein-specific antibodies followed by HRP-conjugated secondary antibodies. Bands corresponding to the antibodies were detected via ECL chemiluminescence.
as §3

A375 cells [6] = assay: Cell cycle analysis by flow cytometry; assay type: cell-based; settings: A375, 0–0.4 µM, 24 h, concentration-dependent
Method: The A375 cells were incubated with CAD-14 (0–0.4 µM) for 24 h. The cells were collected, washed in PBS, and fixed in ice-cold 75% (v/v) ethanol overnight at –20 °C. The cells were re-suspended, and the DNA content was tested using flow cytometry.
as §3

ENO1 = biological target: T1, ENO1 (Homo sapiens, UniProt P06733); assay: Western blot and cellular thermal shift assay (CETSA) of ENO1; assay type: binding
T1 construct: endogenous in cells; host or cells: A375 cells (whole-cell extracts or cell lysates)
Method: as §4
In A375 cell lysates, CAD-14 (0.4 μM) was added for 24 h at different temperatures. Western blotting was used to quantify the effects on ENO1 protein levels.
(§5) Figure 4 Validation of the CAD-14 anti-melanoma pathway. (A) Cells were treated with 0–0.8 µM CAD-14 for 24 h, and the ENO1 was assayed via Western blotting. […] (C) Molecular docking analysis of ENO1 and CAD-14. (D) Cells were treated with 0–0.8 µM CAD-14 for 24 h, and the p-38/P-p38 were assayed via Western blot. Histograms show the intensity ratio. Values represent the means ± SD. * p < 0.05, ** p < 0.01 versus “Ctrl” group.

[7] = tested on: p38 pathway in A375 cells; assay: Western blot of p38/P-p38; assay type: cell-based; settings: A375, 0–0.8 µM, 24 h
Method: as §4, §5

A375 cells [8] = assay: A375 xenograft in nude mice; assay type: in vivo, BALB/c-nude mice
Method: The 8-week-old female BALB/c-nude mice (18–20 g, specific pathogen-free, SPF) were obtained from the Laboratory Animal Experimental Center of the Academy of Military Medical Sciences (SCXK2012-0004, Beijing, China), and were injected with A375 cells and siENO1-A375 cells (1 × 10^7), respectively. One weeks after the tumor formation, four groups were set up: the “negative control (NC)” group (A375 cells, injected with PBS/day); “siENO1” group (siENO1-A375 cells, injected with PBS/day); “Dacarbazine” group (A375 cells, injected with 10 mg/kg/day dacarbazine); and the “CAD-14” group (A375 cells, injected with 5 mg/kg/day CAD-14). The tumor volume was measured every three days and calculated as length × width^2/2. After two weeks, the mice were sacrificed.
Tumor tissues were isolated from the mice after sacrifice. Then, the tissues were fixed in 4% paraformaldehyde and embedded in paraffin. For immunohistochemistry staining, tissues were stained with Ki67 (GB111141, Servicebio, Wuhan, China). For immunofluorescent staining, tissues were stained with ENO1 (bs-3978R, Bioss, Beijing, China).
Figure 5 CAD-14 inhibited the growth of A375 cells in vivo. (A–C) The A375 cells were transfected with three different recombinant ENO1 retroviral vectors and an NC virus for 72 h; the effect of recombinant retrovirus on ENO1 expression were evaluated via fluorescence photography and Western blotting. Histograms show the intensity ratio. (n = 3). Values represent the means ± SD. ** p < 0.01 versus “NC” group. (D–F) Cells were injected subcutaneously into nude mice. Then, they were treated with Dacarbazine (10 mg/kg/day, as a positive control) or CAD-14 (5 mg/kg/day) for two weeks (the red arrow at day 7 represents the first day of treatment). The tumor volume was calculated (n = 5). (G,H) Immunofluorescent staining of Ki67 and ENO1 to detect proliferation ability and expression of ENO1 in tumor tissues, respectively. Values represent the means ± SD. * p < 0.05 versus “PBS” group.

[9] = Developmental/acute toxicity test of zebrafish embryos; assay type: in vivo; settings: AB wild-type, in vivo; zebrafish embryos, 96 h exposure; read-out: median death concentration (IC50)
Text: (§6) The AB-wild-type adult zebrafish (three months old) were purchased from the Institute of Aquatic Biology, Chinese Academy of Sciences (Wuhan, China). During breeding, male and female fish were placed in separate spawning boxes at a 1:1 ratio. Then, early in the morning, they were mixed and laid eggs. During the exposure period, 96-well plates containing normal embryos were randomly selected and viewed daily under a light microscope to assess the developmental toxicity.
(§7) (A) The embryo morphology after CAD-14 treatment for 0–96 h. (B) Survival statistics in different time and concentration.

zebrafish embryos = assay: as above; assay type: in vivo; settings: 96 h
Text: as §6, §7

rats = settings: intravenous injection; cited from earlier work
hepatocytes [10] = settings: rat, in vivo, 1100 mg/kg; cited from earlier work
hepatocytes [11] = settings: mouse, in vivo; cited from earlier work

T1 sequence (P06733 whole entry): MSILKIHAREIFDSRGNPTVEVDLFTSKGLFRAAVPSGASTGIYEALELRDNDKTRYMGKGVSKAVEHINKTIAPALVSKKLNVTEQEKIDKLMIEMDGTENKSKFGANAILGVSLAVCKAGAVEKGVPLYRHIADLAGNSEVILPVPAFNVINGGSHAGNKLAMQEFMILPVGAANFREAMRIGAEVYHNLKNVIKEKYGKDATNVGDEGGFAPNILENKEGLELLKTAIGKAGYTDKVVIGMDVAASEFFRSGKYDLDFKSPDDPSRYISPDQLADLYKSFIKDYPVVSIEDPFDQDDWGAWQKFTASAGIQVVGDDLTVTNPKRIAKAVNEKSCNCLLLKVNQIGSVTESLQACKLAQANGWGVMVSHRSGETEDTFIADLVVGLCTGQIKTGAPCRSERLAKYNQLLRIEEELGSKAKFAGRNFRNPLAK

## O=C/C=C/c1cccc(Cl)c1 [CAD-10, (E)-3-(3-chlorophenyl)acrylaldehyde]
[1]
  activity in initial screening: strong activity

## O=C/C=C/c1c(F)c(F)c(F)c(F)c1F [CAD-14, (E)-3-(perfluorophenyl)acrylaldehyde]
A375 cells [2]
  IC50: 580 nM
A875 cells
  IC50: 650 nM
SK-MEL-1 cells
  IC50: 820 nM
[1]
  activity in initial screening: strong activity
[1]; times stronger than CA
  effect relative to CA: 80 times
[1]; times stronger than DTIC, Figure 2D
  effect relative to positive drug DTIC: ~15 times
[3]
  specificity towards cell types: inhibited A375 cells more effectively than other cancer cells and was less sensitive to normal cell lines
A375 cells [4]
  number of colonies: significantly reduced the number of colonies
[5]
  expression of anti-apoptotic protein Bcl-2: substantially diminished
  expression of anti-apoptotic protein survivin: substantially diminished
  expression of pro-apoptotic protein Bak: strongly increased
A375 cells [6]
  cell cycle arrest: markedly induced S phase arrest
ENO1; 0.4 μM, A375 cell lysates
  thermal stability of ENO1 (temperature-dependent CETSA): decreased the thermal stability of ENO1
ENO1; Western blot 0–0.8 µM 24 h and CETSA
  stability of ENO1 protein: changed the stability of ENO1 protein in a temperature- and dose-responsive manner
[7]
  phosphorylation of p38: suppressed the phosphorylation of p38
  total p38 protein levels: did not affect its total protein levels
A375 cells [8]; 5 mg/kg/day, two weeks, compared with PBS group
  tumor growth: can inhibit the tumor growth
A375 cells [8]; CAD-14 5 mg/kg/day vs dacarbazine 10 mg/kg/day
  tumor growth effect compared with dacarbazine: the effect was better than dacarbazine
A375 cells [8]; immunofluorescent staining, Figure 5H
  ENO1 expression in tumor tissues: fewer ENO1 accumulated
[9]
  LC50 (median lethal concentration) at 96 h: 83700 nM
Zebrafish embryos; 8 μM
  Malformation Rates: 0.00%
  Mortalities: 0.00%
  Number of Deaths: 0
  Number of Deformities: 0
  Survival Number: 20
Zebrafish embryos; 16 μM
  Malformation Rates: 0.00%
  Mortalities: 0.00%
  Number of Deaths: 0
  Number of Deformities: 0
  Survival Number: 20
Zebrafish embryos; 32 μM
  Malformation Rates: 0.00%
  Mortalities: 0.00%
  Number of Deaths: 0
  Number of Deformities: 0
  Survival Number: 20
Zebrafish embryos; 64 μM
  Malformation Rates: 0.00%
  Mortalities: 0.00%
  Number of Deaths: 0
  Number of Deformities: 0
  Survival Number: 20
Zebrafish embryos; 128 μM
  Mortalities: 90.00%
  Number of Deaths: 18
  Number of Deformities: 0
  Survival Number: 2

## O=C/C=C/c1cccnc1 [CAD-20, (E)-3-(pyridin-3-yl)acrylaldehyde]
[1]
  activity in initial screening: strong activity

## O=C/C=C/c1ccccc1Br [CAD-7, (E)-3-(2-bromophenyl)acrylaldehyde]
[1]
  activity in initial screening: strong activity

## O=C/C=C/c1cccc(Cl)c1Cl [CAD-12, (E)-3-(2,3-dichlorophenyl)acrylaldehyde]
[1]
  activity in initial screening: strong activity

## O=C/C=C/c1cccc2ccccc12 [CAD-2, (E)-3-(naphthalen-1-yl)acrylaldehyde]
[1]
  activity in initial screening: strong activity

## O=C/C=C/c1ccccc1 [CA, Cinnamaldehyde]
A375 cells [8]; staining of tumor tissues, Figure 5G
  Ki67-positive cells in tumor tissues: obvious decrease in Ki67-positive cells
rats
  lethal dose (LD50): 74.8 mg/kg
Hepatocytes [10]
  micronucleus rate in hepatocytes: increased
Hepatocytes [11]
  micronucleus rate in hepatocytes: increased

## (E)-3-(pyridin-3-yl)acrylaldehyde [CAD-19]
[1]
  activity in initial screening: strong activity
